≈ marks a conversion by molar mass, not a printed value.
Assay: physchem
Details: for solubility: water
Procedure: The lipophilic matrix may consist of a single substance, e.g. a lipid, or of a mixture of substances, e.g. a mixture of lipids. In the case of mixtures, the DAB 10 water-solubility properties, the partition coefficients and the HLB values specified below are calculated from the arithmetic mean of the corresponding values of the substances and from their amounts in parts by weight. The substances used here must not be toxic.
The water-solubility of the active substance and the substance or substances forming the lipophilic matrix can be defined as described in DAD 10 German Pharmacopeia 10th ed. with 3rd suppl. 1994, published by Deutscher Apothekerverlag [=German Pharmacologic Publishing House], Stuttgart and by Govi Verlag, Frankfurt am Main, 2nd suppl. 1993, see Section IV “Allgemeine Vorschriften” [=General Methods] on pages 5 and 6, entitled “Löslichkeit und Lösungsmittell” [=Solubility and Solvents]; see also Ph. Eur. 4.07, 2004). The solubility is given here by the number of parts by volume of a solvent needed to dissolve 1 part by weight of the substance, such as a drug. “Low solubility” applies to substances that need 30-100 parts by volume of solvent to dissolve 1 part by weight of the substance or drug in question, while the terms “very low solubility”, “sparingly soluble” and “difficultly soluble” apply to substances that need 100-1000 parts by volume of a solvent to dissolve 1 part by weight of the substance or drug in question.

Compound	Water solubility according to DAB 10: parts of water needed to dissolve 1 part of the active substance	solubility [µg/mL]
NC(=O)N1c2ccccc2CC(=O)c2ccccc21 [Oxcarbazepine]	at least 10,000 parts of water	100 (≈ 396 µM)
CN(CCOc1ccc(CC2SC(=O)NC2=O)cc1)c1ccccn1 (stereo not shown) [Rosiglitazone]	at least 1000 parts of water	1000 (≈ 2800 µM)
